{"source": "patent US20060275513A1", "about": "“Diet supplement for burning additional calories, providing sustained energy, supporting weight loss, and/or improving mental focus” (priority 2005, published 2006)", "origin": "cited, not measured here", "conditions": "non-extended release format"}
{"molecule": "Cn1c(=O)c2c(ncn2C)n(C)c1=O", "note": "[Caffeine]", "values": [{"measurement": "accepted half-life", "result": "3.5 to 5", "unit": "h"}]}
